Patent US20260049072A1, “HETEROCYCLIC COMPOUND FOR INDUCING DEGRADATION OF MUTANT KRAS PROTEIN” (Astellas Pharma Inc., priority 2022, published 2026)

Tests used:
RAS G12D = target: T1, RAS G12D (Homo sapiens, UniProt P01116, G12D); assay: RAS G12D degradation activity, Cell ELISA, AsPC-1; type: cell-based; conditions: AsPC-1 cells, 24 hours; read-out: DC50 (RAS G12D 50% degradation value)
T1 construct: host or cells: AsPC-1 human pancreatic cancer cells
Protocol: Test Example 1-2: Evaluation of RAS G12D Degradation Activity on Human KRAS G12D Mutant-Positive Pancreatic Cancer Line AsPC-1
The RAS G12D degradation activities of subject compounds were evaluated in the same manner as in Test Example 1-1 by measuring the expression levels of RAS G12D by a Cell ELISA method.
AsPC-1 cells (ATCC, CRL-1682) were seeded at 36 μL per well on a 384-well plate to give 2.0×10^4 cells per well. As for the cell culture conditions, RPMI-1640 medium (from Sigma-Aldrich) containing 10% fetal bovine serum was used in the presence of 5% CO2 at 37° C.
(§1) The next day, the subject compounds (10 points having final concentrations in the range of 3 μM to 0.1 nM) and DMSO, which was the solvent for the subject compounds, as a negative control were diluted 100-fold with a fresh medium and were each added at 4 μL per well, followed by culturing for 24 hours.
The next day, the procedures from the immobilization of the cells to before the addition of the blocking solution were performed by the same methods as in Test Example 1-1. A blocking solution (Intercept Blocking Buffer; from LI-COR Biosciences) was added at 20 μL per well. After allowing the plate to stand for 30 minutes at room temperature, the supernatant was removed by centrifugation. A solution obtained by diluting an anti-R-actin antibody (1,000-fold dilution) with the blocking solution was added to the wells of the positive control as a primary antibody, and a solution obtained by diluting an anti-Ras (G12D Mutant Specific) antibody (Ras (G12D Mutant Specific) (D8H7) Rabbit mAb; from Cell Signaling Technology; 1,000-fold dilution) and an anti-3-actin antibody (1,000-fold dilution) with the blocking solution was added to the other wells as primary antibodies, each at 15 μL per well. The plate was allowed to stand overnight at 4° C.
The next day, the supernatant was removed by centrifugation, and the plate was washed with PBS. The supernatant was removed by centrifugation, and a solution obtained by diluting an anti-rabbit IgG antibody and an anti-mouse IgG antibody 1,000-fold with the blocking solution was added at 15 μL per well as secondary antibodies. After allowing the plate to stand at room temperature for an hour, the supernatant was removed by centrifugation, and the plate was washed with PBS. After removing the supernatant, the plate was dried as it was with air at room temperature for two hours or more, and the 700-nm and 800-nm fluorescent signals were measured with Aerius.
(§2) With the RAS G12D signaling value at the time of addition of DMSO corrected with the signaling value of β-actin taken as 0% and with the RAS G12D signaling value under the conditions of staining with the anti-β-actin antibody alone taken as 100%, the RAS G12D degradation rates were calculated. The 50% degradation values (DC50) were calculated by Sigmoid-Emax model nonlinear regression analysis.

RAS G12V = target: T2, RAS G12V (Homo sapiens, UniProt P01116, G12V); assay: RAS G12V degradation activity, Cell ELISA, PA-TU-8902; type: cell-based; conditions: PA-TU-8902 cells, 24 hours, 100% = Example compound 17 at 1 μM; read-out: DC50 (RAS G12V 50% degradation value)
T2 construct: host or cells: PA-TU-8902 human pancreatic cancer cells
Protocol: Test Example 1-1: Evaluation of RAS G12V Degradation Activity on Human KRAS G12V Mutant-Positive Pancreatic Cancer Line PA-TU-8902
The RAS G12V degradation activities of subject compounds were evaluated by measuring the expression levels of RAS G12V by a Cell ELISA method.
PA-TU-8902 cells (DSMZ, ACC 179) were seeded at 36 μL per well on a 384-well plate (from Greiner bio-one) to give 1.5×10^4 cells per well. As for the cell culture conditions, DMEM medium (from Sigma-Aldrich) containing 10% fetal bovine serum (from Cytiva) was used in the presence of 5% CO2 at 37° C.
as §1, with “nM), Example compound 17 of a final concentration of 1 μM as a positive control” for “nM)”, “dimethyl sulfoxide (DMSO),” for “DMSO,”
The next day, the culture supernatant was removed, and a 4% paraformaldehyde phosphate buffer solution (from FUJIFILM Wako) was added at 20 μL per well. The plate was allowed to stand for 30 minutes at room temperature to thus immobilize the cells. Then, the supernatant was removed, and 0.1% Triton X-100 (from Amersham Biosciences)-containing Phosphate buffered saline (PBS) was added at 20 μL per well. After allowing the plate to stand at room temperature for 10 minutes, the supernatant was removed, and the wells were washed twice in total by adding PBS at 25 μL per well and removing the supernatant. The washing operations below were performed in the same manner. Next, the supernatant was removed, and 0.5% sodium dodecyl sulfate (SDS; from ThermoFisher Scientific)-containing PBS was added at 20 μL per well. After allowing the plate to stand at room temperature for 10 minutes, the plate was centrifuged to remove the supernatant. After washing with PBS, the supernatant was removed by centrifugation, and a blocking solution (PVDF Blocking Reagent for Can Get Signal; from TOYOBO) was added at 20 μL per well. After allowing the plate to stand for 30 minutes at room temperature, the supernatant was removed by centrifugation, and a solution obtained by diluting an anti-Ras (G12V Mutant Specific) antibody (Ras (G12V Mutant Specific) (D2H12) Rabbit mAb; from Cell Signaling Technology; 500-fold dilution) and an anti-3-actin antibody (Anti-beta Actin antibody; from Abcam; 5,000-fold dilution) with Can Get Signal Solution 2 (from TOYOBO) was added at 15 μL per well as primary antibodies. The plate was allowed to stand overnight at 4° C.
The next day, the supernatant was removed by centrifugation, and the plate was washed with PBS. The supernatant was removed by centrifugation, and a solution obtained by diluting an anti-rabbit IgG antibody (IRDye 800CW Goat anti-Rabbit IgG; from LI-COR Biosciences) and an anti-mouse IgG antibody (IRDye 680RD Donkey anti-Mouse IgG; from LI-COR Biosciences) 1,000-fold with Can Get Signal Solution 2 was added at 15 μL per well as secondary antibodies. After allowing the plate to stand at room temperature for an hour, the supernatant was removed by centrifugation, and the plate was washed with PBS. After removing the supernatant, the plate was dried as it was with air at room temperature for two hours or more, and the 700-nm and 800-nm fluorescent signals were measured with Aerius (from LI-COR Biosciences).
as §2, with “G12V” for “G12D”, “3-actin” for “β-actin”, “at” for “under”, “time” for “conditions”, “addition of Example compound 17 of a final concentration of 1 μM” for “staining with the anti-β-actin antibody alone”

T1 sequence (P01116 1-188 isoform P01116-2 G12D): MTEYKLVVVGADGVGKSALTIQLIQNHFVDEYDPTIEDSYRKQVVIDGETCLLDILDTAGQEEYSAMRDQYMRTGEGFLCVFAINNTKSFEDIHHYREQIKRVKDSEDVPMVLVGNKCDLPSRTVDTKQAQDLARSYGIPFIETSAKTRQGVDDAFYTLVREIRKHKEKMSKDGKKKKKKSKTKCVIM
T2 sequence (P01116 1-188 isoform P01116-2 G12V): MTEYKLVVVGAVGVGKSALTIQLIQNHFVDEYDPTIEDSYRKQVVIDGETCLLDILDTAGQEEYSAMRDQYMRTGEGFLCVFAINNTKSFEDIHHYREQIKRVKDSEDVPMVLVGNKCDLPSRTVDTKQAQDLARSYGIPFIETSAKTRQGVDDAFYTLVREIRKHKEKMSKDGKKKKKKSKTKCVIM

Row | SMILES | DC50 (RAS G12D) | DC50 (RAS G12V)
1 | CO[C@@H](C)COc1cc(OC2CN(C(=O)NCCN(C)C)C2)c2cc(C3CC3)c(-c3c(C)c(F)cc4[nH]ncc34)c(OCc3ccc(-c4cn([C@H](C(=O)N5C[C@H](O)C[C@H]5C(=O)N[C@@H](CO)c5ccc(-n6cncn6)cc5)C(C)C)nn4)cc3)c2n1 (atropisomer, axis not shown; (M)) [Example 12, (4R)-1-[(2S)-2-(4-{4-[({(7M)-6-cyclopropyl-4-[(1-{[2-(dimethylamino)ethyl]carbamoyl}azetidin-3-yl)oxy]-7-(6-fluoro-5-methyl-1H-indazol-4-yl)-2-[(2S)-2-methoxypropoxy]quinolin-8-yl}oxy)methyl]phenyl}-1H-1,2,3-triazol-1-yl)-3-methylbutanoyl]-4-hydroxy-N-{(1R)-2-hydroxy-1-[4-(1H-1,2,4-triazol-1-yl)phenyl]ethyl}-L-prolinamide] | 3 nM | 37 nM
2 | CO[C@@H](C)COc1cc(OC2CN(C(=O)CCCN(C)C)C2)c2cc(C3CC3)c(-c3c(C)c(F)cc4[nH]ncc34)c(OCc3ccc(-c4cn([C@H](C(=O)N5C[C@H](O)C[C@H]5C(=O)N[C@@H](CO)c5ccc(-n6cncn6)cc5)C(C)C)nn4)cc3)c2n1 (atropisomer, axis not shown; (M)) [Example 41, (4R)-1-[(2S)-2-(4-{4-[({(7M)-6-cyclopropyl-4-({1-[4-(dimethylamino)butanoyl]azetidin-3-yl}oxy)-7-(6-fluoro-5-methyl-1H-indazol-4-yl)-2-[(2S)-2-methoxypropoxy]quinolin-8-yl}oxy)methyl]phenyl}-1H-1,2,3-triazol-1-yl)-3-methylbutanoyl]-4-hydroxy-N-{(1R)-2-hydroxy-1-[4-(1H-1,2,4-triazol-1-yl)phenyl]ethyl}-L-prolinamide] | 3 nM | 30 nM
3 | Cc1ncsc1-c1ccc([C@H](CO)NC(=O)[C@@H]2C[C@@H](O)CN2C(=O)[C@H](C(C)C)n2cc(-c3ccc(COc4c(-c5c(C)c(F)cc6[nH]ncc56)c(C5CC5)cc5c(NC6CN(c7ncccn7)C6)nc(OC6CCOCC6)nc45)cc3)nn2)cc1 [Example 15, (4R)-1-[(2S)-2-{4-[4-({[(7M)-6-cyclopropyl-7-(6-fluoro-5-methyl-1H-indazol-4-yl)-2-[(oxan-4-yl)oxy]-4-{[1-(pyrimidin-2-yl)azetidin-3-yl]amino}quinazolin-8-yl]oxy}methyl)phenyl]-1H-1,2,3-triazol-1-yl}-3-methylbutanoyl]-4-hydroxy-N-{(1R)-2-hydroxy-1-[4-(4-methyl-1,3-thiazol-5-yl)phenyl]ethyl}-L-prolinamide] | 146 nM | 89 nM
4 | Cc1ncsc1-c1ccc([C@H](CO)NC(=O)[C@@H]2C[C@@H](O)CN2C(=O)[C@H](C(C)C)n2cc(-c3ccc(COc4c(-c5c(C)c(F)cc6[nH]ncc56)c(C5CC5)cc5c(NCc6cccnc6)nc(OC6CCOCC6)nc45)cc3)nn2)cc1 [Example 29] | 21 nM | 8 nM

The next lines start with the values.

Row | DC50 (RAS G12D) | DC50 (RAS G12V) | SMILES
5 | 6 nM | 11 nM | CO[C@@H](C)COc1cc(OC2CN(C(=O)O[C@H]3C[C@@H](N(C)C)C3)C2)c2cc(C3CC3)c(-c3c(C)c(F)cc4[nH]ncc34)c(OCc3ccc(-c4cn([C@H](C(=O)N5C[C@H](O)C[C@H]5C(=O)N[C@@H](CO)c5ccc(-n6cncn6)cc5)C(C)C)nn4)cc3)c2n1 (atropisomer, axis not shown; (M)) [Example 13, (1s,3R)-3-(dimethylamino)cyclobutyl 3-({(7M)-6-cyclopropyl-7-(6-fluoro-5-methyl-1H-indazol-4-yl)-8-{[4-(1-{(2S)-1-[(2S,4R)-4-hydroxy-2-({(1R)-2-hydroxy-1-[4-(1H-1,2,4-triazol-1-yl)phenyl]ethyl}carbamoyl)pyrrolidin-1-yl]-3-methyl-1-oxobutan-2-yl}-1H-1,2,3-triazol-4-yl)phenyl]methoxy}-2-[(2S)-2-methoxypropoxy]quinolin-4-yl}oxy)azetidine-1-carboxylate]
6 | 2 nM | 10 nM | CO[C@@H](C)COc1cc(OC2CN(C(=O)N3CC(CN(C)C)C3)C2)c2cc(C3CC3)c(-c3c(C)c(F)cc4[nH]ncc34)c(OCc3ccc(-c4cn([C@H](C(=O)N5C[C@H](O)C[C@H]5C(=O)N[C@@H](CO)c5ccc(-c6scnc6C)cc5)C(C)C)nn4)cc3)c2n1 (atropisomer, axis not shown; (M)) [Example 14, (4R)-1-[(2S)-2-(4-{4-[({(7M)-6-cyclopropyl-4-[(1-{3-[(dimethylamino)methyl]azetidine-1-carbonyl}azetidin-3-yl)oxy]-7-(6-fluoro-5-methyl-1H-indazol-4-yl)-2-[(2S)-2-methoxypropoxy]quinolin-8-yl}oxy)methyl]phenyl}-1H-1,2,3-triazol-1-yl)-3-methylbutanoyl]-4-hydroxy-N-{(1R)-2-hydroxy-1-[4-(4-methyl-1,3-thiazol-5-yl)phenyl]ethyl}-L-prolinamide]
7 | 16 nM | 23 nM | Cc1ncsc1-c1ccc([C@H](CO)NC(=O)[C@@H]2C[C@@H](O)CN2C(=O)[C@H](C(C)C)n2cc(-c3ccc(COc4c(-c5c(C)c(F)cc6[nH]ncc56)c(C5CC5)cc5c(N6CC[C@H]6C(N)=O)nc(OC6CCOCC6)nc45)cc3)nn2)cc1 [Example 35]
